System: cultured P. falciparum
Experiment: Cell culture inhibition assay, cultured parasites
Format: cell-based, Plasmodium falciparum
Conditions: in the presence of hypoxanthine; data not shown

## O=c1[nH]cnc2c([C@@H]3N[C@H](COP(=O)(O)O)[C@@H](O)[C@H]3O)c[nH]c12 [ImmHP, Immucillin-H 5′-phosphate]
  activity against cultured P. falciparum: lacks activity

— publication PMC3397391 (Chemistry & biology, 2012)
